Source: publication PMC10648852, “Molecular drivers of resistance to sulbactam-durlobactam in contemporary clinical isolates of Acinetobacter baumannii” (Antimicrobial Agents and Chemotherapy, 2023)

Legend:
Assay in all cases: microbe, parasite or virus in culture
[1] = tested on: ABC clinical isolates with SUL-DUR MIC > 4 µg/mL; format: cell-based, Acinetobacter baumannii-calcoaceticus complex
Protocol: (§1) The following report describes the genomic analysis of these isolates for likely resistance mechanisms. Biochemical analysis of purified PBP3 and phenotypic analyses of both clinical and isogenic strains were also conducted to determine the relative impact of key resistance determinants to SUL-DUR antibacterial activity.
(§2) Antimicrobial susceptibility testing was performed using broth microdilution following standardized methods established by the Clinical Laboratory Standards Institute (CLSI) ([35], [36]). […] MIC values were interpreted using CLSI breakpoints for all antimicrobial agents except those for which CLSI breakpoints are not available ([35]). SUL-DUR was tested as twofold dilutions of sulbactam in combination with a fixed concentration of 4 µg/mL durlobactam ([35]).

[2] = tested on: A. pittii clinical isolates; format: cell-based
Protocol: as §1, §2

[3] = tested on: A. baumannii clinical isolates; format: cell-based
Protocol: as §1, §2

[4] = tested on: A. nosocomialis clinical isolate; format: cell-based; details: isolate ARC7023 (IHMA 2118812), France, BSI, 2019
Protocol: as §1, §2

## CN(C)c1ccc(O)c2c1C[C@H]1C[C@H]3[C@H](N(C)C)C(O)=C(C(N)=O)C(=O)[C@@]3(O)C(O)=C1C2=O [MIN]
[1]
  MIC50: 2 µg/mL
  MIC90: 16 µg/mL
  MIC Max: >16 µg/mL
  MIC Min: ≤0.12 µg/mL
[1]; 64 non-clonal ABC isolates, 2023 CLSI breakpoints plus FDA breakpoint of 4 µg/mL for SUL-DUR
  %NS (% non-susceptibility): 27%
[2]; isolate ARC6949 (IHMA 1898982), Romania, RTI, 2018
  MIC: 0.5 µg/mL
[2]; isolate ARC6951 (IHMA 1776233), Philippines, RTI, 2018
  MIC: 0.25 µg/mL
[2]; isolate ARC6952 (IHMA 1899008), Romania, RTI, 2018
  MIC: 1 µg/mL
[2]; isolate ARC7087 (IHMA 2212062), Colombia, BSI, 2020
  MIC: ≤0.12 µg/mL
[3]; isolate ARC6644 (IHMA 1420327), Mexico, UTI, 2016
  MIC: 8 µg/mL
[3]; isolate ARC6645 (IHMA 1435703), France, UTI, 2016
  MIC: 0.5 µg/mL
[3]; isolate ARC6646 (IHMA 1484127), United States, RTI, 2016
  MIC: 8 µg/mL
[3]; isolate ARC6647 (IHMA 1386786), Argentina, RTI, 2016
  MIC: 1 µg/mL
[3]; isolate ARC6648 (IHMA 1407634), Spain, RTI, 2016
  MIC: 1 µg/mL
[3]; isolate ARC6650 (IHMA 1457337), Argentina, RTI, 2016
  MIC: 4 µg/mL
[3]; isolate ARC6652 (IHMA 1465642), Belgium, RTI, 2016
  MIC: ≤0.12 µg/mL
[3]; isolate ARC6653 (IHMA 1308777), Vietnam, RTI, 2016
  MIC: 16 µg/mL
[3]; isolate ARC6799 (IHMA 1562935), Spain, UTI, 2017
  MIC: >16 µg/mL
[3]; isolate ARC6800 (IHMA 1557526), Turkey, RTI, 2017
  MIC: 2 µg/mL
[3]; isolate ARC6801 (IHMA 1662094), Thailand, RTI, 2017
  MIC: 0.5 µg/mL
[3]; isolate ARC6802 (IHMA 1557073), Spain, UTI, 2017
  MIC: >16 µg/mL
[3]; isolate ARC6803 (IHMA 1589408), Belgium, UTI, 2017
  MIC: ≤0.12 µg/mL
[3]; isolate ARC6805 (IHMA 1558650), United States, RTI, 2017
  MIC: 8 µg/mL
[3]; isolate ARC6808 (IHMA 1557168), Spain, RTI, 2017
  MIC: 16 µg/mL
[3]; isolate ARC6809 (IHMA 1699528), Guatemala, RTI, 2017
  MIC: ≤0.12 µg/mL
[3]; isolate ARC6810 (IHMA 1699548), Guatemala, RTI, 2017
  MIC: 1 µg/mL
[3]; isolate ARC6812 (IHMA 1699530), Guatemala, RTI, 2017
  MIC: 0.25 µg/mL
[3]; isolate ARC6813 (IHMA 1699543), Guatemala, UTI, 2017
  MIC: 0.25 µg/mL
[3]; isolate ARC6814 (IHMA 1699512), Guatemala, RTI, 2017
  MIC: 4 µg/mL
[3]; isolate ARC6815 (IHMA 1699513), Guatemala, RTI, 2017
  MIC: 0.25 µg/mL
[3]; isolate ARC6816 (IHMA 1699521), Guatemala, RTI, 2017
  MIC: 8 µg/mL
[3]; isolate ARC6817 (IHMA 1699523), Guatemala, RTI, 2017
  MIC: ≤0.12 µg/mL
[3]; isolate ARC6818 (IHMA 1683261), Thailand, RTI, 2017
  MIC: ≤0.12 µg/mL
[3]; isolate ARC6819 (IHMA 1683267), Thailand, RTI, 2017
  MIC: 8 µg/mL
[3]; isolate ARC6820 (IHMA 1647876), Argentina, RTI, 2017
  MIC: 4 µg/mL
[3]; isolate ARC6821 (IHMA 1699517), Guatemala, RTI, 2017
  MIC: ≤0.12 µg/mL
[3]; isolate ARC6822 (IHMA 1637626), Guatemala, RTI, 2017
  MIC: 0.25 µg/mL
[3]; isolate ARC6823 (IHMA 1620872), Greece, SSSI, 2017
  MIC: 8 µg/mL
[3]; isolate ARC6824 (IHMA 1625487), Argentina, BSI, 2017
  MIC: 2 µg/mL
[3]; isolate ARC6937 (IHMA 1562926), Spain, UTI, 2017
  MIC: >16 µg/mL
[3]; isolate ARC6950 (IHMA 1820064), Israel, RTI, 2018
  MIC: 2 µg/mL
[3]; isolate ARC6953 (IHMA 1909827), Turkey, IAI, 2018
  MIC: 0.5 µg/mL
[3]; isolate ARC6954 (IHMA 1838192), Guatemala, SSSI, 2018
  MIC: 0.5 µg/mL
[3]; isolate ARC6955 (IHMA 1825425), United States, RTI, 2018
  MIC: 2 µg/mL
[3]; isolate ARC7008 (IHMA 2009813), Thailand, BSI, 2019
  MIC: 4 µg/mL
[3]; isolate ARC7009 (IHMA 2043611), United States, UTI, 2019
  MIC: 2 µg/mL
[3]; isolate ARC7010 (IHMA 2043398), United States, RTI, 2019
  MIC: 1 µg/mL
[3]; isolate ARC7011 (IHMA 2104553), Germany, RTI, 2019
  MIC: 2 µg/mL
[3]; isolate ARC7012 (IHMA 2010001), Thailand, RTI, 2019
  MIC: 2 µg/mL
[3]; isolate ARC7013 (IHMA 1962831), Argentina, RTI, 2019
  MIC: 1 µg/mL
[3]; isolate ARC7014 (IHMA 2045328), Guatemala, IAI, 2019
  MIC: 16 µg/mL
[3]; isolate ARC7015 (IHMA 2045327), Guatemala, UTI, 2019
  MIC: 0.25 µg/mL
[3]; isolate ARC7016 (IHMA 2148441), Brazil, BSI, 2019
  MIC: 0.5 µg/mL
[3]; isolate ARC7017 (IHMA 2148446), Brazil, BSI, 2019
  MIC: 0.25 µg/mL
[3]; isolate ARC7018 (IHMA 2045454), Guatemala, IAI, 2019
  MIC: 0.25 µg/mL
[3]; isolate ARC7019 (IHMA 2114463), Thailand, RTI, 2019
  MIC: 1 µg/mL
[3]; isolate ARC7020 (IHMA 2045326), Guatemala, RTI, 2019
  MIC: 0.5 µg/mL
[3]; isolate ARC7021 (IHMA 1966347), Guatemala, RTI, 2019
  MIC: 0.25 µg/mL
[3]; isolate ARC7022 (IHMA 2045319), Guatemala, IAI, 2019
  MIC: 1 µg/mL
[3]; isolate ARC7024 (IHMA 2059448), Turkey, RTI, 2019
  MIC: 2 µg/mL
[3]; isolate ARC7025 (IHMA 2002121), Spain, RTI, 2019
  MIC: 8 µg/mL
[3]; isolate ARC7026 (IHMA 2104494), Guatemala, BSI, 2019
  MIC: 2 µg/mL
[3]; isolate ARC7082 (IHMA 2160640), Belgium, BSI, 2020
  MIC: 16 µg/mL
[3]; isolate ARC7083 (IHMA 2163687), United States, RTI, 2020
  MIC: 16 µg/mL
[3]; isolate ARC7084 (IHMA 2189596), Germany, RTI, 2020
  MIC: 1 µg/mL
[3]; isolate ARC7085 (IHMA 2205747), Guatemala, IAI, 2020
  MIC: 1 µg/mL
[3]; isolate ARC7086 (IHMA 2207563), Israel, RTI, 2020
  MIC: 2 µg/mL
[3]; isolate ARC7088 (IHMA 2215554), Turkey, BSI, 2020
  MIC: 16 µg/mL
[3]; isolate ARC7089 (IHMA 2240345), Argentina, BSI, 2020
  MIC: 2 µg/mL
[3]; isolate ARC7090 (IHMA 2244410), Poland, RTI, 2020
  MIC: 4 µg/mL
[3]; isolate ARC7091 (IHMA 2244564), Australia, RTI, 2020
  MIC: ≤0.12 µg/mL
[3]; isolate ARC7092 (IHMA 2258772), United States, BSI, 2020
  MIC: 4 µg/mL
[3]; isolate ARC7093 (IHMA 2258783), United States, RTI, 2020
  MIC: 8 µg/mL
[3]; isolate ARC7094 (IHMA 2296423), Turkey, RTI, 2020
  MIC: 2 µg/mL
[3]; isolate ARC7095 (IHMA 2320843), Turkey, BSI, 2020
  MIC: 8 µg/mL
[3]; isolate ARC7156 (IHMA 2455450), Greece, RTI, 2021
  MIC: >16 µg/mL
[3]; isolate ARC7158 (IHMA 2523738), Italy, BSI, 2021
  MIC: 2 µg/mL
[3]; isolate ARC7159 (IHMA 2456229), Malaysia, RTI, 2021
  MIC: 4 µg/mL
[3]; isolate ARC7160 (IHMA 2458626), Thailand, RTI, 2021
  MIC: 1 µg/mL
[3]; isolate ARC7161 (IHMA 2429252), Ukraine, RTI, 2021
  MIC: 16 µg/mL
[3]; isolate ARC7162 (IHMA 2411847), United States, BSI, 2021
  MIC: 2 µg/mL
[3]; isolate ARC7163 (IHMA 2477704), United States, BSI, 2021
  MIC: 2 µg/mL
[4]
  MIC: 0.5 µg/mL
